Data on 23 compounds can be found in publication PMC8074287, “Analgesic and Anticancer Activity of Benzoxazole Clubbed 2-Pyrrolidinones as Novel Inhibitors of Monoacylglycerol Lipase” (Molecules, 2021).

Structures are written as SMILES. Where two headings read alike, the source gives them in different places. Some results are limits rather than exact numbers.

In data set [1] the test system is formalin-induced nociception. Nature of the data set: Formalin-induced analgesic (nociception) test. The data set is classed as in vivo, Male Wistar rats. Particulars: 100 mg/kg i.p., 30 min before formalin. An excerpt: The formalin-induced analgesic test is an extensively acknowledged animal nociception model. In order to evaluate both central and peripheral effects of the compound (20), formalin-induced nociception model was selected for analgesic activity. The formalin induced behavioral response comprises two typical phases, stage I and II. Stage I persists up to five minutes after formalin injection and is characterized by acute pain with vigorous licking and biting of the injected site. Stage I consists the action formalin on afferent C-fiber nociceptors. While Stage II starts 10–30 min after formalin injection and persists till 60 min, characterized by periodic licking and biting of the injected site. Stage II imitates the action of central sensitization of the spinal dorsal horn neurons.
Figure 5 Formalin-induced analgesic test; a dose of the test compound 20 (5, 10, 30, and 50 mg/kg, p.o, suspended in 0.5% CMC) was administered 4 h before formalin injection (50 µL, 2.5%). Reference drug, gabapentin (100 mg/kg, i.p, dissolved in 0.9% normal saline) was injected 30 min before formalin injection. Total paw licking and biting duration, Stage I (white bar, 0–5 min) and stage II (black bar, 10–30 min) was recorded as a measure of pain behavior. Data is represented as mean ± SEM from a group of 10 animals. * p < 0.05, ** p < 0.01, p > 0.05 (NS, nonsignificant) vs. control (vehicle). GBP: Gabapentin; D5, D10, D30, andD50 are the dose concentrations of test compound 20.
Male Wistar rats (180–200 g) were obtained with the permission of IAEC (proposal number 1048) from Jamia Hamdard, New Delhi, India. The results of test compound 20 and reference drug, Gabapentin (GBP), were statistically compared with the control group.

Another data set has as its system MAGL. To be noted: cited from earlier work.
A further data set deals with FAAH. On the set-up: method as in PMID 15456244. Particulars: read-out: FAAH IC50, value reported; cited from earlier work.
The next data set has as its target T1, hMAGL (Homo sapiens, UniProt Q99685).
T1 sequence (Q99685 1-303): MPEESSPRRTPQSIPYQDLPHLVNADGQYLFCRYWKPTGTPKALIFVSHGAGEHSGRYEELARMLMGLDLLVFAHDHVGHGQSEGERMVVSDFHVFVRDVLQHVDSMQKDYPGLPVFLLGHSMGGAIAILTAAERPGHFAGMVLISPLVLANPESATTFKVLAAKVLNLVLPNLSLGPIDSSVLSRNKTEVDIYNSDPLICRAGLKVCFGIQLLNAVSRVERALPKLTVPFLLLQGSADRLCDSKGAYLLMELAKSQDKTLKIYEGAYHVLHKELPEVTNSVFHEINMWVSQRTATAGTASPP
As to the kind of experiment: Human MAGL inhibition assay (Cayman's assay kit).

The target of another data set is T2, hFAAH (Homo sapiens, UniProt O00519).
T2 sequence (O00519 1-579): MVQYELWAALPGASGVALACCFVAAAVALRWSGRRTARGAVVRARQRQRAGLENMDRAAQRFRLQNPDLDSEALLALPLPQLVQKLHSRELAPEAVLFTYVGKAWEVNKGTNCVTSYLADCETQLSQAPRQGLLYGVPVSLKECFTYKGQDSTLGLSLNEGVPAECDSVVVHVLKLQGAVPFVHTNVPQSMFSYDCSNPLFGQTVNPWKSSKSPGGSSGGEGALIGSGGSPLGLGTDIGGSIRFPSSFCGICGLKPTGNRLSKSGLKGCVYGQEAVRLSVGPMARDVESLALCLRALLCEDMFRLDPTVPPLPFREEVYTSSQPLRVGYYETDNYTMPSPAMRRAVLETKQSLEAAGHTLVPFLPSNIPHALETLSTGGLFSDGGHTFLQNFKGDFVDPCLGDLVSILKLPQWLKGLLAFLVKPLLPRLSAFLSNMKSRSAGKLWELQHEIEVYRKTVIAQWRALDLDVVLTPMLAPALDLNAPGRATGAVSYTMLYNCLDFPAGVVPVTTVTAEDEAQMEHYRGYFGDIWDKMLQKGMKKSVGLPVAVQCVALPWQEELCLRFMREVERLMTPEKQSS
Nature of the data set: Human FAAH inhibition assay (Cayman's assay kit). To be noted: IC50, mean ± SEM (n = 3).

[2] abbreviates: earlier work of the authors' group.

With `NCC1(CC(=O)O)CCCCC1` [GBP, Gabapentin, reference compound], the “paw licking and biting, Stage II” value in data set [1] (vs control) was “significant reduction of paw licking and biting”. For the same compound, the “analgesic effect, Stage I (acute nociception)” value in data set [1] (vs control (0.5% CMC)) is given as “little analgesic effects”.
`O=C(N1CCN(C(c2ccc(F)cc2)c2ccc(F)cc2)CC1)n1cncn1` [SAR629]: the IC50 in the data set on MAGL is 1.1 nM.
In the case of `NC(=O)c1cccc(-c2cccc(OC(=O)NC3CCCCC3)c2)c1` [URB597], the IC50 in the data set with FAAH was 4.6 nM.
`O=C1CC(c2nc3ccccc3o2)CN1c1ccc(O)cc1` (centres unmarked) [Compound 17, 4-(Benzo[d]oxazol-2-yl)-1-(4-hydroxyphenyl)pyrrolidin-2-one]: the melting point (in general, the temperature, or range, at which the solid turns liquid) was in the range of 242 to 245 °C. The same compound registered an IC50 against hMAGL of 62000 ± 2700 nM.
In the case of `O=C(N1CCN(C(c2ccccc2)c2ccccc2)CC1)n1nnc2ccccc21` [ML30], the IC50 in the data set on MAGL is 0.54 nM.
On to `CCCCNC(=O)Oc1ccc(C2=NCCS2)cc1` [SPB01403], for which, in the data set on MAGL, the IC50 was 31000 nM.
In the case of `Cc1ccccc1N1CC(c2nc3ccccc3o2)CC1=O` (centres unmarked) [Compound 13, 4-(Benzo[d]oxazol-2-yl)-1-(o-tolyl)pyrrolidin-2-one], the melting point lay within 162 to 164 °C. Also, on hMAGL, the IC50 came to 85000 ± 1500 nM.
Take `COc1ccc(N2CC(c3nc4ccccc4[nH]3)CC2=O)cc1` (centres unmarked) [compound 25]: in the data set with MAGL (setting [2]), the IC50 was 9.4 nM.
In the case of `O=C(O[C@H](CO)C(F)(F)F)N1C[C@@H]2C(c3ccn(-c4ccc(F)cc4)n3)[C@@H]2C1` (some centres unmarked) [PF-06795071], the IC50 in the data set with MAGL is 3 nM.
Turning to `COc1ccc(N2CC(c3nc4ccccc4o3)CC2=O)cc1` (centres unmarked) [Compound 18, 4-(Benzo[d]oxazol-2-yl)-1-(4-methoxyphenyl)pyrrolidin-2-one], the melting point lay within 177 to 179 °C. At hMAGL, this compound gave an IC50 of 42 ± 1.5 nM. On hFAAH, this compound registered an IC50 of 37000 ± 2200 nM.
Consider `O=C(Cn1nnc2ccccc21)Nc1ccc(-c2nc3ccccc3s2)cc1` [ZINC24092691], for which, in the data set on MAGL (setting [2]), the IC50 was 10 nM.
`O=C1CC(c2nc3ccccc3o2)CN1c1ccc(Cl)cc1` (centres unmarked) [Compound 15, 4-(Benzo[d]oxazol-2-yl)-1-(4-chlorophenyl)pyrrolidin-2-one] yielded a melting point of 174 to 176 °C. The compound also displayed an IC50 against hMAGL of 65 ± 3.2 nM. The IC50 on hFAAH turned out to be 28000 ± 1800 nM.
`O=C(Nc1cccc(-c2ccccc2)c1)OC1CCCCC1` [URB602]: the IC50 in the data set with MAGL was 28000 nM.
In the case of `O=C1CC(c2nc3ccccc3o2)CN1c1ccccc1` (centres unmarked) [Compound 12, 4-(Benzo[d]oxazol-2-yl)-1-phenylpyrrolidin-2-one], the melting point is 148 to 150 °C. On hMAGL, this compound had an IC50 above 100000 nM.
With `O=C(OC(C(F)(F)F)C(F)(F)F)N1CCC(C(O)(c2ccc3c(c2)OCO3)c2ccc3c(c2)OCO3)CC1` [KML29], in the data set on MAGL, the IC50 was 3.6 nM and the “selectivity for MAGL over FAAH” value is listed as “more than 10,000 fold”.
Consider `O=C(N1CCC(C(c2ccc3c(c2)OCO3)c2ccc3c(c2)OCO3)CC1)n1cncn1` [JJKK-048, {4-[bis-(benzo[d][1,3]dioxol-5-yl)methyl]-piperidin-1-yl}(1H-1,2,4-triazol-1-yl)methanone], for which, in the data set on MAGL, the IC50 is 0.363 nM and the “selectivity for MAGL over FAAH” value is reported as “more than 10,000 fold”.
`COc1nn(-c2ccc(NC(=O)OCc3ccccc3)c(C)c2)c(=O)o1` [CAY10499, reference compound]: the IC50 in the data set on MAGL is 144 nM; at hMAGL (read-out: hMAGL, IC50, mean ± SEM (n = 3)) it was 415 ± 3.2 nM.
`O=C(Oc1ccc([N+](=O)[O-])cc1)N1CCC(C(O)(c2ccc3c(c2)OCO3)c2ccc3c(c2)OCO3)CC1` [JZL184]: the IC50 with MAGL is […].
In turn, `O=C1CC(c2nc3ccccc3o2)CN1Cc1ccccc1` (centres unmarked) [Compound 11, 4-(Benzo[d]oxazol-2-yl)-1-benzylpyrrolidin-2-one] returned a melting point of 160 to 162 °C. Besides, the IC50 against hMAGL was above 100000 nM.
For the compound `O=C(Cn1nnc2ccccc21)Nc1ccc(-c2nc3ccccc3s2)cc1` [ZINC24092691 analogue], the IC50 with MAGL (setting [2]) is 6.5 nM.
`Cc1ncccc1-c1cc(F)cc(N2C[C@H](N3CCN(c4ncccn4)CC3)CC2=O)c1` [R(3t)]: in the data set with MAGL, the IC50 was 3.6 nM.
Compound `Cc1ccc(N2CC(c3nc4ccccc4o3)CC2=O)cc1` (centres unmarked) [Compound 14, 4-(Benzo[d]oxazol-2-yl)-1-(p-tolyl)pyrrolidin-2-one] had a melting point of 164 to 166 °C. At hMAGL, this compound displayed an IC50 of 72000 ± 2100 nM.
On to `O=C1CC(c2nc3ccccc3o2)CN1c1ccc(F)c(Cl)c1` (centres unmarked) [Compound 16, 4-(Benzo[d]oxazol-2-yl)-1-(3-chloro-4-fluorophenyl)pyrrolidin-2-one], for which the melting point is 187 to 189 °C. The same compound registered an IC50 on hMAGL of 34 ± 1.7 nM. In addition, the IC50 on hFAAH was determined as 25000 ± 2300 nM.
